Laboratory results from patent US20140241995A1, “MICROPATCH FOR ASSESSING CHEMICAL CONTACT ALLERGY” (priority 2011, published 2014).
“And” between values parts separate entries of the source, which are not always exact repeats. Equal values may be shown once. Read-outs that look alike come from different tables or passages of the source.

Tests used:
[1] = system: subjects; conditions: cited from earlier work
[2] = system: volunteers with a positive history of contact allergy to p-phenylenediamine; assay: Occluded patch test with p-phenylenediamine in petrolatum at treatment diameters of 8, 4, 3 and 2 mm; type: in vivo, human; conditions: 0.1% or 1.0% in petrolatum, under occlusion, diameters 8, 4, 3, 2 mm; reactions at 48 h, 72 h and/or 96 h
Description: 15 volunteers with a positive history of contact allergy to p-phenylenediamine were recruited. Contact allergy to p-phenylenediamine was determined based on their response to a standard 48 h, 8 mm diagnostic patch test with 1% p-phenylenediamine in petrolatum. According to their known sensitivity, these volunteers were tested with either 0.1% or 1.0% p-phenylenediamine in petrolatum, under occlusion, with treatment diameters of 8, 4, 3, and 2 mm. Reactions at 48 h, 72 h and/or 96 h were recorded using the Internationally accepted dermatology grading scale of N, ?+, +, ++. The responses were transposed into numerical values (0-3 respectively) and summated. The summated scores are presented below.

[3] = system: patch tested subjects; conditions: PPD patch testing, cited from earlier work

Compound	% sensitised ([1]; Row 1: diameter 3 cm, area 7.1 cm^2, total 1000 μg, 142 μg/cm^2)	% sensitised ([1]; Row 2: diameter 3 cm, area 7.1 cm^2, total 500 μg, 71 μg/cm^2)	% sensitised ([1]; Row 3: diameter 3 cm, area 7.1 cm^2, total 250 μg, 35.4 μg/cm^2)	% sensitised ([1]; Row 4: diameter 3 cm, area 7.1 cm^2, total 125 μg, 17.1 μg/cm^2)	% sensitised ([1]; Row 5: diameter 3 cm, area 7.1 cm^2, total 62.5 μg, 8.8 μg/cm^2)	% sensitised ([1]; Row 6: diameter 1.5 cm, area 1.8 cm^2, total 62.5 μg, 35.4 μg/cm^2)	% sensitised ([1]; Row 7: diameter 2.1 cm, area 3.5 cm^2, total 58 μg, 16.4 μg/cm^2)	% sensitised ([1]; Row 8: diameter 3 cm, area 7.1 cm^2, total 116 μg, 16.4 μg/cm^2)	% sensitised ([1]; Row 9: diameter 4.25 cm, area 14.2 cm^2, total 232 μg, 16.4 μg/cm^2)	% sensitised ([1]; Row 10: l cm paper, area 0.8 cm^2, total 30 μg, 38 μg/cm^2)	% sensitised ([1]; Row 11: 3 mm paper, area 0.08 cm^2, total 3 μg, 38 μg/cm^2)	impact of reduced patch test diameter on the reaction intensity observed [2]	rate of sensitization caused by the test ([3]; Dawe et al. 2004)	incidence of active sensitization ([3]; Devos and van der Valk 2001)
O=[N+]([O-])c1ccc(Cl)c([N+](=O)[O-])c1 [DNCB, 2,4-dinitrochlorobenzene]	100%	100%	83%	63%	8%	85% and 86%	55%	50%	66%	93%	26%	–	–	–
Nc1ccc(N)cc1 [PPD, para-phenylenediamine]	–	–	–	–	–	–	–	–	–	–	–	no detectable impact	less than 0.2%	1.5%
